Laboratory results taken from patent publication US20180104059A1, “Delivery of Therapy to Living Tissue” (President and Fellows of Harvard College, priority 2015, published 2018).

Key:
[1] = test system: canine model of myocardial infarction; conditions: ONO1301 alone or in combination with a VRD; cited from earlier work
[2] = in vivo; cited from earlier work
[3] = Delivery of fluorescently tagged protein via thericardium port versus intraperitoneal, fluorescence at target site; type: in vivo, rat; conditions: after three hours
Excerpt: A bovine serum albumin solution tagged with a fluorescent molecule (Vivotag 800) was delivered via the port 18. […] The bioluminescence from the dose is shown for intraperitoneal delivery (at left) and for direct delivery via the thericardium 10 is shown in FIG. 28.

Molecule: O=C(O)COc1cccc2c1CCC=C2CCO/N=C(\c1ccccc1)c1cccnc1 [ONO1301]
- HGF, VEGF and SDF-1 in the myocardium [1]: upregulation
- myocardial vascularization [1]: increase in myocardial vascularization

Molecule: CC(C)NCC(O)COc1ccc(CC(N)=O)cc1 (centres unmarked) [atenolol]
- efficacy with intrapericardial delivery compared to IV administration [2]: improved the efficacy

Molecule: bovine serum albumin: bovine serum albumin solution tagged with a fluorescent molecule (Vivotag 800), model protein
- protein at the target site (fluorescence) ([3]; delivered via the port): sustained concentration
- protein at the target site (fluorescence) ([3]; same amount injected intraperitoneally): undetectable quantity
